Test results: ChEMBL document CHEMBL1201862, “PubChem BioAssay data set” (2004)
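Dose response: 5 concentrations. Exposure: 48 h. Format: 96-well plates. Endpoint: linear interpolation; highest concentration if not reached. At the GI50, growth is halved.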 The source made the active and inactive calls. Cut-off read from the data, not from the text of the source: active = GI50 up to about 1.1 µM and inactive = higher.

Columns and labels:
Assay in all cases: DTP human tumour cell line panel, 48 h
786-0 = test system: 786-0
A549 = test system: A549
ACHN = test system: ACHN
BT-549 = test system: BT-549
CAKI-1 = test system: CAKI-1
COLO 205 = test system: COLO 205
DU-145 = test system: DU-145
EKVX = test system: EKVX
HCC 2998 = test system: HCC 2998
HCT-116 = test system: HCT-116
HCT-15 = test system: HCT-15
HOP-62 = test system: HOP-62
HOP-92 = test system: HOP-92
HT-29 = test system: HT-29
Hs-578T = test system: Hs-578T
IGROV-1 = test system: IGROV-1
KM12 = test system: KM12
LOX IMVI = test system: LOX IMVI
M14 = test system: M14
MCF7 = test system: MCF7
MDA-MB-231 = test system: MDA-MB-231
MDA-MB-435 = test system: MDA-MB-435
MOLT-4 = test system: MOLT-4
Malme-3M = test system: Malme-3M
NCI-H226 = test system: NCI-H226
NCI-H23 = test system: NCI-H23
NCI-H460 = test system: NCI-H460
NCI-H522 = test system: NCI-H522
NCI/ADR-RES = test system: NCI/ADR-RES
OVCAR-3 = test system: OVCAR-3
OVCAR-4 = test system: OVCAR-4
OVCAR-5 = test system: OVCAR-5
OVCAR-8 = test system: OVCAR-8
PC-3 = test system: PC-3
RPMI-8226 = test system: RPMI-8226
RXF 393 = test system: RXF 393
SF-268 = test system: SF-268
SF-295 = test system: SF-295
SK-MEL-28 = test system: SK-MEL-28
SK-MEL-2 = test system: SK-MEL-2
SK-MEL-5 = test system: SK-MEL-5
SK-OV-3 = test system: SK-OV-3
SN12C = test system: SN12C
SNB-19 = test system: SNB-19
SNB-75 = test system: SNB-75
SR = test system: SR
SW-620 = test system: SW-620
T47D = test system: T47D
TK-10 = test system: TK-10
U-251 = test system: U-251
UACC-257 = test system: UACC-257
UACC-62 = test system: UACC-62
UO-31 = test system: UO-31
K562 = test system: K562
MDA-N = test system: MDA-N
SF-539 = test system: SF-539

In the case of `Cc1ccc(S(=O)(=O)ON2C(=O)c3cccc4cc([N+](=O)[O-])cc(c34)C2=O)cc1`, the GI50 (786-0) is reported as 47.5 µM (inactive), the GI50 (A549) is reported as > 100 µM (inactive) and the GI50 (ACHN) is reported as 62.1 µM (inactive). The GI50 (BT-549) was 27 µM (inactive), the GI50 (CAKI-1) was 55.8 µM (inactive) and the GI50 (COLO 205) was 81.5 µM (inactive). The GI50 (DU-145) was 89.1 µM (inactive), the GI50 (EKVX) was > 100 µM (inactive) and the GI50 (HCC 2998) was 23.8 µM (inactive). For the same molecule, the GI50 (HCT-116) was 45.3 µM (inactive), the GI50 (HCT-15) was 71 µM and the GI50 (HOP-62) was > 100 µM (inactive). The GI50 (HOP-92) was 50.5 µM (inactive), the GI50 (HT-29) was 28.6 µM (inactive) and the GI50 (Hs-578T) was 68.1 µM (inactive). For the same molecule, the GI50 (IGROV-1) was 40.6 µM (inactive), the GI50 (KM12) was 32.6 µM (inactive) and the GI50 (LOX IMVI) was 32 µM (inactive). For the same molecule, the GI50 (M14) was > 100 µM (inactive), the GI50 (MCF7) was 33.7 µM (inactive) and the GI50 (MDA-MB-231) was 56.2 µM (inactive). For the same molecule, the GI50 (MDA-MB-435) was 40.3 µM (inactive), the GI50 (MOLT-4) was 28.6 µM (inactive) and the GI50 (Malme-3M) was 44.2 µM (inactive). The GI50 (NCI-H226) was 54.8 µM (inactive), the GI50 (NCI-H23) was > 100 µM (inactive) and the GI50 (NCI-H460) was 19.6 µM (inactive). The GI50 (NCI-H522) was 56.2 µM (inactive), the GI50 (NCI/ADR-RES) was > 100 µM (inactive) and the GI50 (OVCAR-3) was 35.3 µM (inactive). The GI50 (OVCAR-4) was 93.1 µM (inactive), the GI50 (OVCAR-5) was > 100 µM (inactive) and the GI50 (OVCAR-8) was > 100 µM (inactive). For the same molecule, the GI50 (PC-3) was > 100 µM (inactive), the GI50 (RPMI-8226) was > 100 µM (inactive) and the GI50 (RXF 393) was 44.3 µM (inactive). The GI50 (SF-268) was 79.3 µM (inactive), the GI50 (SF-295) was > 100 µM (inactive) and the GI50 (SK-MEL-28) was > 100 µM (inactive). The GI50 (SK-MEL-2) was 84.5 µM (inactive), the GI50 (SK-MEL-5) was 69.3 µM (inactive) and the GI50 (SK-OV-3) was 38.9 µM (inactive). The GI50 (SN12C) was 81.3 µM (inactive), the GI50 (SNB-19) was 57.8 µM (inactive) and the GI50 (SNB-75) was 41.9 µM (inactive). For the same molecule, the GI50 (SR) was 26.7 µM (inactive), the GI50 (SW-620) was 66.1 µM (inactive) and the GI50 (T47D) was 51.6 µM (inactive). The GI50 (TK-10) was 42.9 µM (inactive), the GI50 (U-251) was > 100 µM (inactive) and the GI50 (UACC-257) was 66.2 µM (inactive). For the same molecule, the GI50 (UACC-62) was 49.9 µM (inactive) and the GI50 (UO-31) was 42.1 µM (inactive).

`O=C(CCCNc1nc(-c2ccccc2)cs1)c1cccs1` was tested, and the GI50 (786-0) was > 100 µM (inactive), the GI50 (A549) was > 100 µM (inactive) and the GI50 (ACHN) was > 100 µM (inactive). For the same molecule, the GI50 (BT-549) was > 100 µM (inactive), the GI50 (CAKI-1) was > 100 µM (inactive) and the GI50 (COLO 205) was > 100 µM (inactive). For the same molecule, the GI50 (EKVX) was > 100 µM (inactive), the GI50 (HCC 2998) was > 100 µM (inactive) and the GI50 (HCT-116) was > 100 µM (inactive). For the same molecule, the GI50 (HCT-15) was over 100 µM, the GI50 (HOP-62) was > 100 µM (inactive) and the GI50 (HT-29) was > 100 µM (inactive). For the same molecule, the GI50 (Hs-578T) was > 100 µM (inactive), the GI50 (IGROV-1) was > 100 µM (inactive) and the GI50 (K562) was > 100 µM (inactive). The GI50 (KM12) was > 100 µM (inactive), the GI50 (LOX IMVI) was > 100 µM (inactive) and the GI50 (M14) was > 100 µM (inactive). For the same molecule, the GI50 (MCF7) was > 100 µM (inactive), the GI50 (MDA-MB-231) was > 100 µM (inactive) and the GI50 (MDA-MB-435) was > 100 µM (inactive). The GI50 (MDA-N) was > 100 µM (inactive), the GI50 (MOLT-4) was > 100 µM (inactive) and the GI50 (Malme-3M) was > 100 µM (inactive). The GI50 (NCI-H226) was > 100 µM (inactive), the GI50 (NCI-H23) was > 100 µM (inactive) and the GI50 (NCI-H460) was > 100 µM (inactive). The GI50 (NCI-H522) was > 100 µM (inactive), the GI50 (NCI/ADR-RES) was > 100 µM (inactive) and the GI50 (OVCAR-3) was > 100 µM (inactive). The GI50 (OVCAR-4) was > 100 µM (inactive), the GI50 (OVCAR-5) was > 100 µM (inactive) and the GI50 (OVCAR-8) was > 100 µM (inactive). The GI50 (PC-3) was > 100 µM (inactive), the GI50 (RPMI-8226) was > 100 µM (inactive) and the GI50 (SF-268) was > 100 µM (inactive). For the same molecule, the GI50 (SF-295) was > 100 µM (inactive), the GI50 (SF-539) was > 100 µM (inactive) and the GI50 (SK-MEL-28) was > 100 µM (inactive). For the same molecule, the GI50 (SK-MEL-2) was > 100 µM (inactive), the GI50 (SK-MEL-5) was > 100 µM (inactive) and the GI50 (SK-OV-3) was > 100 µM (inactive). The GI50 (SN12C) was > 100 µM (inactive), the GI50 (SNB-19) was > 100 µM (inactive) and the GI50 (SNB-75) was > 100 µM (inactive). The GI50 (SR) was > 100 µM (inactive), the GI50 (SW-620) was > 100 µM (inactive) and the GI50 (T47D) was > 100 µM (inactive). The GI50 (TK-10) was > 100 µM (inactive), the GI50 (U-251) was > 100 µM (inactive) and the GI50 (UACC-257) was > 100 µM (inactive). The GI50 (UACC-62) was > 100 µM (inactive) and the GI50 (UO-31) was > 100 µM (inactive).
